Where two headings read alike, the source gives them in different places.
Key:
[1] = test system: mice with isoproterenol (ISO)-induced ischemic heart disease; assay: ISO-induced ischemic heart disease mouse model: Ca2+ in myocardial tissue; type: in vivo
Description: (§1) Male C57BL/6 mice were allowed to acclimate to the environment and then randomly divided into 9 groups, namely the blank control group, the ISO model group, the ISO+diltiazem 20 mg/kg positive control drug group, the ISO+Formula I (0.1, 0.5, 2 mg/kg) groups, and the ISO+Formula II (0.1, 0.5, 2 mg/kg) groups. Mice in the drug administration groups were intragastrically administered the corresponding doses of Formula I and Formula II compounds once a day at the same time. Mice in the positive drug diltiazem group were intragastrically administered the corresponding dose of diltiazem once a day. Mice in the blank control group and the model group were given the same amount of solvent (0.5% CMC-Na). The administration volume was 10 mL/kg, and the administration was continuous for 11 days.
(§2) From the 4th to the 10th day of drug administration, ISO modeling was carried out. The blank control group was subcutaneously injected with normal saline, and mice in the other groups were subcutaneously injected with ISO at a dose of 40 mg/kg (modeling was performed 2 hours after drug administration), for a total of 7 times.
Calcium ion detection in myocardial tissue: After the experiment ended, some myocardial tissue was taken to prepare a 10% myocardial tissue homogenate with ultrapure water. The homogenate was centrifuged at 1200 rpm for 20 minutes at 4° C. to separate the supernatant of the myocardial tissue homogenate. The calcium ion content was determined according to the kit instructions; protein quantification was performed using the BCA protein assay method.

[2] = test system: mice with isoproterenol (ISO)-induced ischemic heart disease; assay: ISO-induced ischemic heart disease mouse model: myocardial tissue pathology (H&E); type: in vivo; details: for The number of animals with lesion degree + / The number of animals with lesion degree ++ / The number of animals with lesion degree +++ / The number of animals with lesion degree ++++ / The number of animals with lesion degree +++++ / The number of animals with lesion degree − / average score of myocardial tissue lesion degree: H&E
Description: as §1, §2
Pathological detection of myocardial tissue: After the experiment ended, the heart was washed with ice-cold physiological saline and dried with absorbent paper. It was then cut transversely into two halves. One-third of the part closer to the apex of the heart was fixed in a 4% paraformaldehyde solution. After dehydration with gradient ethanol and clearing with xylene, it was immersed in melted paraffin three times for embedding, 30 minutes each time. After embedding, continuous sections (about 4 μm thick) were made. Routine hematoxylin and eosin (H.E.) staining was performed. The pathological state of the myocardial tissue was observed under an optical microscope, photographed, and analyzed.
• −: No abnormalities were observed. • +: No myocardial tissue damage was seen. There was local hypertrophy of cardiomyocytes in the interventricular septum and papillary muscles, local edema and degeneration of cardiomyocytes, widening of the local muscle space in the lesion area, and mild non-specific inflammation in the interstitium. • ++: No obvious myocardial tissue damage (cardiomyocyte necrosis) was observed. There was local hypertrophy of cardiomyocytes in the interventricular septum and papillary muscles, local edema and degeneration of cardiomyocytes. Myofibril dissolution (disappearance of cross-striations) could be seen in local areas. The lesions were relatively limited and distributed in small foci. Non-specific inflammation was visible in the interstitium, and local fibrous tissue hyperplasia in the interstitium was noted. • +++: There was obvious hypertrophy of cardiomyocytes in the interventricular septum and papillary muscles, local edema and degeneration of cardiomyocytes. […] The lesion was limited to the subendocardium of the local interventricular septum (or papillary muscle), with a limited and small affected area. Non-specific inflammation was visible in the interstitium of the lesion area, and local fibrous tissue hyperplasia in the interstitium was noted. • ++++: The hypertrophy of cardiomyocytes in the interventricular septum and papillary muscles is remarkable. Locally, there is edema and degeneration of cardiomyocytes; there is obvious damage (necrosis of cardiomyocytes) in the myocardial tissue of the local interventricular septum and papillary muscles. The lesions are distributed in foci (or small patches), and the affected area is relatively large. […] Locally, there is edema and degeneration of cardiomyocytes; the damage (necrosis of cardiomyocytes) of the myocardial tissue of the local interventricular septum and papillary muscles is severe. The damage (necrosis) lesions are distributed in patches and are connected to each other. Transmural myocardial tissue damage of the interventricular septum and papillary muscles can be seen locally.

Rat H9C2 cardiomyocytes [3] = details: 800 μM ISO 24 h, MTT 570 nm
Description: (§3) Rat H9C2 cardiomyocytes in the logarithmic growth phase were seeded into 96-well plates at a density of 7×10^4 cells/mL, with 100 μL per well. […] After 24 hours of culture, the drug groups were treated with 800 μM ISO and the corresponding concentrations of drugs. The ISO model group received 800 μM ISO and an equal volume of DMSO, and the blank control group received an equal volume of DMSO. The cells were then cultured for another 24 hours. After removing the supernatant, 100 μL MTT solution (0.5 mg/mL) was added to each well and incubated in the cell culture incubator for 4 hours. After removing the supernatant, 150 μL DMSO was added to each well, mixed by shaking for 10 minutes, and the absorbance was measured at 570 nm using a microplate reader to calculate cell viability. Cell viability (%)=[(As−Ab)/(Ac−Ab)]×100%. As: Experimental well (medium with cells, MTT, ISO); Ac: Control well (medium with cells, MTT, without ISO); Ab: Blank well (medium without cells, MTT, without ISO).

H9C2 cardiomyocytes [4] = details: 6 h hypoxia, 12 h reoxygenation, CCK 450 nm
Description: (§4) H9C2 cardiomyocytes in the logarithmic growth phase were seeded into 96-well plates at a density of 7×10^4 cells/mL, with 100 μL per well.
(§5) After 24 hours of culture, the culture medium of the H/R and drug-treated groups was replaced with serum-free glucose-free DMEM medium (100 μL per well). The cells were then placed in an anaerobic incubator and cultured under hypoxic conditions in a 37° C. cell culture incubator. After 6 hours, the supernatant of the H/R and drug-treated groups was removed and replaced with high-glucose medium containing 10% fetal bovine serum (100 μL per well). Each drug-treated group received the corresponding concentration of the drug, while the H/R model group and the blank control group received an equal volume of DMSO.
(§6) After removing the supernatant, 100 μL of CCK solution (the volume of CCK accounted for 10% of the DMEM culture medium volume) was added to each well. The cells were cultured in the cell culture incubator for 1 hour, and the absorbance was measured at 450 nm using a microplate reader to calculate the cell viability. Cell viability was calculated as follows: Cell viability (%)=(Experimental well-Blank well)/(Control well-Blank well)×100%.

Rat H9C2 cardiomyocytes [5] = details: 50 μM Ang II 24 h, MTT 570 nm
Description: (§7) Rat H9C2 cardiomyocytes in the logarithmic growth phase were seeded at a density of 7×10^4 cells/mL into 96-well plates, with 100 μL per well. […] After 24 hours of culture, the drug treatment groups were respectively added with 50 μM Ang II and the corresponding concentration of the drug. The Ang II model group was added with 50 μM Ang II and an equal volume of DMSO, and the blank control group was added with an equal volume of DMSO. Then, the cells were cultured for another 24 hours. After removing the supernatant, 100 μL of MTT solution (0.5 mg/mL) was added to each well, and the plates were placed in an incubator for 4 hours. After removing the supernatant again, 150 μL of DMSO was added to each well, and the mixture was shaken and mixed evenly for 10 minutes. The absorbance was measured at 570 nm using a microplate reader to calculate the cell viability.
(§8) Cell viability (%)=[(As−Ab)/(Ac−Ab)]×100% • As: Experimental well (culture medium containing cells, MTT, Ang II); • Ac: Control well (culture medium containing cells, MTT, without Ang II); • Ab: Blank well (culture medium without cells, MTT, without Ang II).

Rat H9C2 cardiomyocytes [6] = assay: cells; details: H9c2, 24 h, read-out: Cell survival rate
Description: as §3

H9C2 cardiomyocytes [7] = assay: cells; details: Rattus norvegicus, H9c2, read-out: Cell viability
Description: as §4, §5, §6

Rat H9C2 cardiomyocytes [8] = assay: cells; details: H9c2, 24 h, read-out: Cell viability
Description: as §7, §8

Cc1c(O)cc(O)c2c(=O)c(Cc3ccc4c(c3)OCO4)coc12 [Formula II, 3-(benzo[d][1,3]dioxol-5-ylmethyl)-5,7-dihydroxy-8-methyl-4H-chromen-4-one]
Ca^2+ ([1]; 0.1 mg/kg intragastric once a day 11 days): 0.046 ± 0.015 mmol/gprot | Ca^2+ ([1]; 0.5 mg/kg intragastric once a day 11 days): 0.054 ± 0.014 mmol/gprot | Ca^2+ ([1]; 2 mg/kg intragastric once a day 11 days): 0.059 ± 0.009 mmol/gprot | The number of animals with lesion degree + ([2]; 0.1 mg/kg): 2 | The number of animals with lesion degree ++ ([2]; 0.1 mg/kg): 4 | The number of animals with lesion degree +++ ([2]; 0.1 mg/kg): 4 | The number of animals with lesion degree ++++ ([2]; 0.1 mg/kg): 0 | The number of animals with lesion degree +++++ ([2]; 0.1 mg/kg): 0 | The number of animals with lesion degree − ([2]; 0.1 mg/kg): 0 | average score of myocardial tissue lesion degree ([2]; 0.1 mg/kg): 2.20 ± 0.79 | The number of animals with lesion degree + ([2]; 0.5 mg/kg): 3 | The number of animals with lesion degree ++ ([2]; 0.5 mg/kg): 4 | The number of animals with lesion degree +++ ([2]; 0.5 mg/kg): 3 | The number of animals with lesion degree ++++ ([2]; 0.5 mg/kg): 0 | The number of animals with lesion degree +++++ ([2]; 0.5 mg/kg): 0 | The number of animals with lesion degree − ([2]; 0.5 mg/kg): 0 | average score of myocardial tissue lesion degree ([2]; 0.5 mg/kg): 2.00 ± 0.82 | The number of animals with lesion degree + ([2]; 2 mg/kg): 6 | The number of animals with lesion degree ++ ([2]; 2 mg/kg): 1 | The number of animals with lesion degree +++ ([2]; 2 mg/kg): 0 | The number of animals with lesion degree ++++ ([2]; 2 mg/kg): 0 | The number of animals with lesion degree +++++ ([2]; 2 mg/kg): 0 | The number of animals with lesion degree − ([2]; 2 mg/kg): 4 | average score of myocardial tissue lesion degree ([2]; 2 mg/kg): 0.73 ± 0.65 | pathological damage of myocardial tissue (H&E staining) ([2]; three doses (0.1, 0.5, 2 mg/kg) by gavage): significantly improve the pathological damage of myocardial tissue | OD (Rat H9C2 cardiomyocytes [3]; 0.1 μM): 0.964 ± 0.132 | OD (Rat H9C2 cardiomyocytes [3]; 0.3 μM): 0.964 ± 0.031 | OD (Rat H9C2 cardiomyocytes [3]; 1 μM): 0.904 ± 0.072^###&& | OD (Rat H9C2 cardiomyocytes [3]; 3 μM): 0.963 ± 0.064 | OD (Rat H9C2 cardiomyocytes [3]; 5 μM): 0.784 ± 0.067 | OD (Rat H9C2 cardiomyocytes [3]; 10 μM): 0.806 ± 0.067 | OD (H9C2 cardiomyocytes [4]; 0.1 μM): 0.630 ± 0.070 | OD (H9C2 cardiomyocytes [4]; 0.3 μM): 0.612 ± 0.059 | OD (H9C2 cardiomyocytes [4]; 1 μM): 0.542 ± 0.075 | OD (H9C2 cardiomyocytes [4]; 3 μM): 0.640 ± 0.070 | OD (H9C2 cardiomyocytes [4]; 5 μM): 0.466 ± 0.023 | OD (H9C2 cardiomyocytes [4]; 10 μM): 0.498 ± 0.071 | OD (Rat H9C2 cardiomyocytes [5]; 0.1 μM): 0.876 ± 0.044 | OD (Rat H9C2 cardiomyocytes [5]; 0.3 μM): 0.791 ± 0.062 | OD (Rat H9C2 cardiomyocytes [5]; 1 μM): 0.835 ± 0.052 | OD (Rat H9C2 cardiomyocytes [5]; 3 μM): 0.785 ± 0.048 | OD (Rat H9C2 cardiomyocytes [5]; 10 μM): 0.814 ± 0.053 | viability at 0.1 µM (Rat H9C2 cardiomyocytes [6]): 79.8% | viability at 0.3 µM (Rat H9C2 cardiomyocytes [6]): 79.8% | viability at 1 µM (Rat H9C2 cardiomyocytes [6]): 74.8% | viability at 3 µM (Rat H9C2 cardiomyocytes [6]): 79.6% | viability at 5 µM (Rat H9C2 cardiomyocytes [6]): 64.9% | viability at 10 µM (Rat H9C2 cardiomyocytes [6]): 66.7% | viability at 0.1 µM (H9C2 cardiomyocytes [7]): 60.5% | viability at 0.3 µM (H9C2 cardiomyocytes [7]): 58.8% | viability at 1 µM (H9C2 cardiomyocytes [7]): 52.1% | viability at 3 µM (H9C2 cardiomyocytes [7]): 61.5% | viability at 5 µM (H9C2 cardiomyocytes [7]): 44.8% | viability at 10 µM (H9C2 cardiomyocytes [7]): 47.9% | viability at 0.1 µM (Rat H9C2 cardiomyocytes [8]): 81.4% | viability at 0.3 µM (Rat H9C2 cardiomyocytes [8]): 73.5% | viability at 1 µM (Rat H9C2 cardiomyocytes [8]): 77.6% | viability at 3 µM (Rat H9C2 cardiomyocytes [8]): 73% | viability at 10 µM (Rat H9C2 cardiomyocytes [8]): 75.6%

From US20260285849A1, “METHYLOPHIOPOGONONE A DERIVATIVE, AND PREPARATION AND USE THEREOF” (INSTITUTE OF MATERIA MEDICA, CHINESE ACADEMY OF MEDICAL …, priority 2022, published 2026)
